In patent publication US10854312B2, “Selective peptide antagonists” (BIONIZ, LLC, priority 2013, dated 2020):
“Also recorded” adds a separate entry of the source. No end group written: not given here. MAL‑PEG24 = bi-functional PEG24 molecule (Mal-PEG24)

Tests used:
Format in all cases: cell-based
[1] = system: IL-6; test: T1165 cell proliferation assay, IL-6; conditions: IL-6 0.1 ng/ml, BNZ132-PEG-130 0.1-10 μM, 24 hours, WST-1
Description: CTLL2 cells are cultured in the presence of 5 u/ml and 10 u/ml of IL-2 (FIG. 10A) and 2.5 ng/ml and 5 ng/ml of IL-15 (FIG. 10B) in the presence of increasing concentration of BNZ132-PEG-130. T1165 cells are cultured with 0.1 ng/ml of IL-6 (FIG. 10C) and increasing concentration of BNZ132-PEG-130. […] BNZ132-1 was conjugated to BNZ130 via a PEG24 linker. The name of the bi-antagonist peptide is BNZ132-PEG-130. FIG. 10A and FIG. 10B show the results of BNZ132-PEG-130 in IL-2 (FIG. 10A) and IL-15 (FIG. 10B) CTLL2 proliferation assay. Cells were washed and incubated with IL-2 (5 and 10 units/ml), IL-15 (2.5 and 5 ng/ml) in the presence or absence of BNZ132-PEG-130 (0.1-10 μM). Cells were then pulsed with the WST-1 reagent to measure the proliferative response for the next 6 hr (OD450). […] Cells are washed and incubated with IL-6 (0.1 ng/ml) in the presence or absence of BNZ132-PEG-130 (0.1-10 μM) for 24 hours. Cells were then pulsed with WST-1 reagent for the following 6 hr to measure OD450. The BNZ130-1 polypeptide as presented in Table 2, above, is tested for its activity in inhibiting IL-6 activity. T1165 cells that are dependent on human or mouse IL-6 for their growth in vitro are selected. The cell line is cultured in the absence of IL-6, In the presence of IL-6, in the presence of BNZ130-1, and in the presence of IL-6 and BNZ130-1.

[2] = system: human IL-2; test: CTLL-2 proliferation assay (WST-1), IL-2; conditions: IL-2 5 and 10 units/ml, BNZ132-PEG-130 0.1-10 μM, WST-1
Description: (§1) FIG. 6A-FIG. 6E presents inhibitory spectrum of BNZ132-1 over γc- and non-γc-cytokines. […] Neutralizing antibodies against each cytokine (R & D systems, 5 μg ml^−1) were included as controls. After 20 h, the cells were pulsed with WST-1 (Clontech) and OD450 of each well was measured after 6 h. A 19-mer scrambled peptide was used as a negative control at 5 μM. The experiments were conducted in triplicate (applies to all experiments in FIG. 6A-FIG. 6E). The result represents one of at least three independent experiments (applies to all experiments in FIG. 6A-FIG. 6E). […] In PT-18 proliferation assay, PT-18β or PT-18h21Rα cells were withdrawn of mouse IL-3 for 12 h before the experiment. Cells were then incubated with 1 nM of mouse IL-4, mouse IL-9, or mouse IL-21 in the presence or absence of the indicated doses (μM) of BNZ132-1. Neutralizing antibodies to each cytokine (5 μg ml^−1, except for anti-mouse IL-21 polyclonal antibody which was used at 15 μg ml−1) and a scrambled control peptide (5 μM) were included as negative controls. WST-1 assay was conducted as described above. […] In PT-18 h21Rα survival assay, PT-18h21Rα cells are described in the text. […] Both parental and hIL-21Rα positive PT-18 cells were washed and incubated without IL-3 for 12 h before the assay. […] The Y-axis represents the cpm (count per minute) values measured by a β-counter. […]

[3] = system: human IL-15; test: CTLL-2 proliferation assay (WST-1), IL-15; conditions: IL-15 2.5 and 5 ng/ml, BNZ132-PEG-130 0.1-10 μM, WST-1
Description: as §1

IKEFLQSFIHIVQSIINT (SEQ ID NO: 130)—MAL-PEG24—SLTHLIERSSRAVLQSLLRASRQ (SEQ ID NO: 131) (linker (positions not given here) via MAL‑PEG24; also: MAL-PEG24 linker joins the two peptides, attachment points not given here) [BNZ132-PEG-130, BNZ132-1 conjugated to BNZ130 via a PEG24 linker; dual peptide antagonist]
inhibition of IL-6-induced proliferation of T1165 cells [1]: inhibiting; also recorded: inhibited in a dose response manner | inhibition of IL-2-induced proliferation of CTLL2 cells [2]: inhibiting; also recorded: inhibited in a dose response manner | inhibition of IL-15-induced proliferation of CTLL2 cells [3]: inhibiting; also recorded: inhibited in a dose response manner
